# Assay results reported in ChEMBL document CHEMBL1124835, “Structure-activity relationships of antineoplastic agents in multidrug resistance” (J Med Chem, 1990).
# Numbered stars: 1 amine (or outer) side, 2 acyl side, 3 side chain; on linkers, the order of the positions; unused ones are H or OH. Bridge positions count the residues as written; N and C are the ends. Square brackets hold non-standard residues; d marks the D form. Peptide text beside a SMILES is read from it. I, II: the chains in the order shown. Actinocin(1to9) = Cc1c2oc3c(C)ccc(C(=O)[*:2])c3nc-2c(C(=O)[*:1])c(N)c1=O; NMeV = CN[C@H](C(=O)O)C(C)C; Sar = CNCC(=O)O
# Columns and labels:
# [1] = tested on: L1210
# Description: Cross resistance profile versus L1210/R71 cells.
# [2] = physchem; settings: octanol/water, pH 7.4
# [3] = tested on: CHRC5 cell line; type: functional, Cricetulus griseus
# Description: Effect on collateral sensitivity of CHRC5 cells to local anesthetics/steroids.
# [4] = tested on: CHO
# Description: Effect on cross resistance of CHO cells resistant to colchicine (CHRC5)
# [5] = tested on: CCRF-CEM; assay: Effect on cross resistance of CCRF-CEM cells resistant to vincristine.; type: functional, Homo sapiens
# [6] = tested on: L1210; assay: Cross resistance to the compound expressed as log of ratio of molar concentration of drug inducing 50% inhibition of growth in murine leukemia L1210/R71 and L1210/0 cells; type: functional, Mus musculus
# [7] = tested on: CHRC5 cell line
# Description: Collateral sensitivity of CHRC5 cells to local anesthetics/steroids as log of ratio of molar concentration of drug inducing 50% growth inhibition in CHO AUXB1 cells to that of CHRC5 cells
# [8] = octanol/water, pH 7.4
# [9] = tested on: CHO; assay: Cross resistance of chinese hamster cells resistant to actinomycin D as log of ratio of molar concentration of compound inducing 50% inhibition of growth in resistant and sensitive cells; type: functional, Cricetulus griseus
# [10] = tested on: CHO; assay: Effect on cross resistance of chinese hamster ovary CHO cells resistant to colchicine (CHRC5); type: functional, Cricetulus griseus
Compound,Log CR [1],logD [2],also measured
NC(=O)NO [HYDROXYUREA],0.3,-1.27,
CC1(C)N=C(N)N=C(N)N1c1ccccc1,2.18,-3,
CCCC[N+](CCCC)(CCCC)CCCC.[Br-] [TETRABUTYLAMMONIUM BROMIDE],,-3,Log sensitivity [3]: -0.84
COc1cccc2c1C(=O)c1c(O)c3c(c(O)c1C2=O)C[C@@](O)(C(=O)CO)C[C@@H]3O[C@H]1C[C@H](N)[C@H](O)[C@H](C)O1 [DOXORUBICIN],,0.1,Log CR [4]: 1.4; Log CR [5]: 1.46
CC/C(=C(\c1ccccc1)c1ccc(OCCN(C)C)cc1)c1ccccc1 [TAMOXIFEN],0.59,,
COc1cc(NCc2ccc3nc(N)nc(N)c3c2C)cc(OC)c1OC [TRIMETREXATE],,0.84,Log CR [6]: 1.75
O=P1(N(CCCl)CCCl)NCCCO1 (stereo unspecified) [CYCLOPHOSPHAMIDE ANHYDROUS],,0.63,Log sensitivity [3]: 0.52
C[N+]1(C)CCC(OC(=O)C(c2ccccc2)c2ccccc2)CC1.[I-] [4-DAMP],1.63,2.64,
COc1ccc(OC)c(Cc2cnc3nc(N)nc(N)c3c2C)c1 [PIRITREXIM],,1.77,Log CR [6]: 1.89
CC1(C)N=C(N)N=C(N)N1c1cccc(O)c1,1.86,-3.67,
CC[C@]1(O)C[C@@H]2CN(CCc3c([nH]c4ccccc34)[C@@](C(=O)OC)(c3cc4c(cc3OC)N(C)[C@H]3[C@@](O)(C(N)=O)[C@H](O)[C@]5(CC)C=CCN6CC[C@]43[C@@H]65)C2)C1 [VINDESINE],,0.67,Log CR [5]: 3
CCCCCCCCCCCCc1cccc(N2C(N)=NC(N)=NC2(C)C)c1,0.52,3.41,
CCN(CC)CCOC(=O)c1ccc(N)cc1 [PROCAINE],,0.3,Log sensitivity [7]: 0.4
CC[n+]1c(-c2ccccc2)c2cc(N)ccc2c2ccc(N)cc21.[Br-] [HOMIDIUM BROMIDE],,1.15,Log CR [4]: 1.04
CC(=O)c1cccc(N2C(N)=NC(N)=NC2(C)C)c1,2.2,-3.55,
CO[C@H](C(=O)[C@@H](O)[C@@H](C)O)[C@@H]1Cc2cc3cc(O[C@H]4C[C@@H](O[C@H]5C[C@@H](O)[C@H](O)[C@@H](C)O5)[C@H](O)[C@@H](C)O4)c(C)c(O)c3c(O)c2C(=O)[C@H]1O[C@H]1C[C@@H](O[C@H]2C[C@@H](O[C@H]3C[C@](C)(O)[C@H](O)[C@@H](C)O3)[C@@H](O)[C@@H](C)O2)[C@H](O)[C@@H](C)O1 [PLICAMYCIN],,-0.25,
COc1ccc(C[C@H](N)C(=O)N[C@H]2[C@@H](O)[C@H](n3cnc4c(N(C)C)ncnc43)O[C@@H]2CO)cc1 [PUROMYCIN],1.82,0.86,Log CR [4]: 2.02
CO[C@H](C(=O)[C@@H](O)[C@@H](C)O)[C@@H]1Cc2cc3cc(O[C@H]4C[C@@H](O[C@@H]5C[C@@H](O)[C@H](O)[C@@H](C)O5)[C@H](O)[C@@H](C)O4)c(C)c(O)c3c(O)c2C(=O)[C@H]1O[C@H]1C[C@@H](O[C@@H]2C[C@@H](O)[C@@H](O[C@@H]3C[C@](C)(O)[C@H](O)[C@@H](C)O3)[C@@H](C)O2)[C@H](O)[C@@H](C)O1 [PLICAMYCIN],0.66,,
O=c1[nH]cc(F)c(=O)[nH]1 [FLUOROURACIL],-0.04,-0.89,Log CR [4]: 0
C[C@]12CC[C@H]3[C@@H](CCC4=CC(=O)CC[C@@]43C)[C@@H]1CC[C@@H]2C(=O)CO [DESOXYCORTICOSTERONE],,3.08,Log sensitivity [3]: 1
S=P(N1CC1)(N1CC1)N1CC1 [THIOTEPA],,0.53,Log CR [4]: 0
"Cc1c2oc3c(C)ccc(C(=O)N[C@@H]4C(=O)N[C@H](C(C)C)C(=O)N5CCC[C@H]5C(=O)N(C)CC(=O)N(C)[C@@H](C(C)C)C(=O)O[C@@H]4C)c3nc-2c(C(=O)N[C@@H]2C(=O)N[C@H](C(C)C)C(=O)N3CCC[C@H]3C(=O)N(C)CC(=O)N(C)[C@@H](C(C)C)C(=O)O[C@@H]2C)c(N)c1=O [DACTINOMYCIN] (I: T[dV]P[Sar][NMeV] / II: T[dV]P[Sar][NMeV]; ester I:1-I:C, II:1-II:C; linker I:N-II:N via Actinocin(1to9))",0.12,3.21,
Nc1n[nH]c(N)n1 [GUANAZOLE],0.08,-1.61,
Cc1nc(N)nc(N)c1-c1ccc(Cl)c(Cl)c1 [METOPRINE],,2.56,Log CR [6]: 1.7

Compound,Log CR [1],logD [2],also measured
CC(C)NCC(O)COc1cccc2ccccc12 (stereo unspecified) [PROPRANOLOL],,,Log sensitivity [7]: 0.7
Nc1ncn([C@@H]2O[C@H](CO)[C@@H](O)[C@H]2O)c(=O)n1 [AZACITIDINE],1.54,-2.17,
BLEOMYCIN,,,logD [8]: -2.38
Sc1ncnc2nc[nH]c12 [MERCAPTOPURINE ANHYDROUS],,0.01,Log CR [9]: -0.3; Log CR [6]: 0.6
COc1cccc2c1C(=O)c1c(O)c3c(c(O)c1C2=O)C[C@@](O)(C(C)=O)C[C@@H]3O[C@H]1C[C@H](N)[C@H](O)[C@H](C)O1 [DAUNORUBICIN],,,Log CR [5]: 1.2
CC(=O)[C@H]1CC[C@H]2[C@@H]3CCC4CC(=O)CC[C@]4(C)[C@H]3CC[C@]12C (stereo partly specified),,3.99,Log sensitivity [3]: 1
CC(C)[C@@H]1NC(=O)[C@H](C)OC(=O)[C@@H](C(C)C)NC(=O)[C@@H](C(C)C)OC(=O)[C@H](C(C)C)NC(=O)[C@H](C)OC(=O)[C@@H](C(C)C)NC(=O)[C@@H](C(C)C)OC(=O)[C@H](C(C)C)NC(=O)[C@H](C)OC(=O)[C@@H](C(C)C)NC(=O)[C@@H](C(C)C)OC1=O [VALINOMYCIN],0.59,3.24,
CC[C@H]1CN2CCc3cc(OC)c(OC)cc3[C@@H]2C[C@@H]1C[C@H]1NCCc2cc(OC)c(OC)cc21 [EMETINE],,3.24,Log CR [10]: 1.46
O=c1[nH]c(=O)n([C@H]2C[C@H](O)[C@@H](CO)O2)cc1Br [BROXURIDINE],,-0.29,
COc1cc2cc(c1Cl)N(C)C(=O)C[C@H](OC(=O)[C@H](C)N(C)C(C)=O)[C@]1(C)O[C@H]1[C@H](C)[C@@H]1C[C@@](O)(NC(=O)O1)[C@H](OC)/C=C/C=C(\C)C2 [MAYTANSINE],1.23,,Log CR [5]: 2.85
CC[C@]1(O)C[C@H]2CN(CCc3c([nH]c4ccccc34)[C@@](C(=O)OC)(c3cc4c(cc3OC)N(C=O)[C@H]3[C@@](O)(C(=O)OC)[C@H](OC(C)=O)[C@]5(CC)C=CCN6CC[C@]43[C@@H]65)C2)C1 [VINCRISTINE],,2.57,Log CR [5]: 2.76
O=[N+]([O-])c1cccc2ccc[n+]([O-])c12,,1.02,
CN[C@H]1CCc2cc(OC)c(OC)c(OC)c2-c2ccc(OC)c(=O)cc21 [DEMECOLCINE],,1.37,Log CR [4]: 1.2
N[C@@H](Cc1ccc(N(CCCl)CCCl)cc1)C(=O)O,,-0.52,Log CR [4]: 1.18
C[n+]1c2cc(N)ccc2cc2ccc(N)cc21.[Cl-] [EUFLAVINE],,1.6,Log CR [10]: 0.84
COc1cc2c(c(OC)c1OC)-c1ccc(OC)c(=O)cc1[C@@H](NC(C)=O)CC2 [COLCHICINE],,1.03,Log CR [4]: 2.26; Log CR [5]: 1.08
Nc1ccc2cc3ccc(N)cc3nc2c1 [PROFLAVINE],,1.1,Log CR [10]: 0.6; Log CR [9]: 0.46
CC1(C)N=C(N)N=C(N)N1c1cccc(COc2cccc(-c3ccccc3)c2)c1,1.22,0.69,
CC1(C)N=C(N)N=C(N)N1c1cccc(Br)c1,2.06,-2.14,
CC[C@H]1OC(=O)[C@H](C)[C@@H](O[C@H]2C[C@@](C)(OC)[C@@H](O)[C@H](C)O2)[C@H](C)[C@@H](O[C@@H]2O[C@H](C)C[C@H](N(C)C)[C@H]2O)[C@](C)(O)C[C@@H](C)C(=O)[C@H](C)[C@@H](O)[C@]1(C)O [ERYTHROMYCIN],,1.26,Log CR [4]: 0.7
C=C1[C@@H](C)[C@H]2[C@H](Cc3ccccc3)NC(=O)[C@]23OC(=O)/C=C/[C@H](O)CCC[C@@H](C)C/C=C/[C@H]3[C@@H]1O [CYTOCHALASIN B],,3.37,Log CR [4]: 1.04
O=C(O)CCCc1ccc(N(CCCl)CCCl)cc1 [CHLORAMBUCIL],,1.47,Log CR [4]: 0.3
CC[C@]1(O)C[C@@H]2CN(CCc3c([nH]c4ccccc34)[C@@](C(=O)OC)(c3cc4c(cc3OC)N(C)[C@H]3[C@@](O)(C(=O)OC)[C@H](OC(C)=O)[C@]5(CC)C=CCN6CC[C@]43[C@@H]65)C2)C1 [VINBLASTINE],,,Log CR [5]: 1.28
